# Source: ChEMBL document CHEMBL3603734, “Design and biological evaluation of novel quinolone-based metronidazole derivatives as potent Cu(2+) mediated DNA-targeting antibacterial agents” (Bioorg Med Chem Lett, 2015)
# Activity calls are given as the source filed them. No cut-off for these calls is given here.
# What was measured:
# Micrococcus luteus = test: Antibacterial activity against Micrococcus luteus ATCC 4698 after 24 hrs by microbroth dilution method; assay type: functional; details: NCTC 2665, 24 h
# Pseudomonas aeruginosa [1] = test: Binding affinity to Pseudomonas aeruginosa DNA by fluorescence spectroscopic analysis
# [2] = Cytotoxicity against MEF assessed as inhibition of cell proliferation at 10^2 umol/L after 72 hrs by MTT assay relative to control; assay type: cell-based; details: mouse, MEF cells
# Pseudomonas aeruginosa [3] = test: Antibacterial activity against Pseudomonas aeruginosa ATCC 27853 after 24 hrs by microbroth dilution method; assay type: functional; details: ATCC 27853, 24 h
# Cyberlindnera jadinii = test: Antifungal activity against Candida utilis ATCC 9950 after 24 hrs by microbroth dilution method; assay type: functional; details: Williopsis jadinii, ATCC 9950, 24 h
# [4] = Cytotoxicity against mouse C2C12 cells assessed as inhibition of cell proliferation at 10^-2 umol/L after 72 hrs by MTT assay relative to control; assay type: cell-based
# Pseudomonas aeruginosa [5] = test: Binding affinity to Pseudomonas aeruginosa DNA assessed as Stem-Volmer quenching constant by fluorescence spectroscopic analysis in presence of KI
# [6] = Cytotoxicity against HEK293 cells assessed as inhibition of cell proliferation at 3 x 10^2 umol/L after 72 hrs by MTT assay relative to control; assay type: cell-based; details: human
# [7] = Cytotoxicity against MEF assessed as inhibition of cell proliferation at 3 x 10^-1 umol/L after 72 hrs by MTT assay relative to control; assay type: cell-based; details: mouse, MEF cells
# [8] = Cytotoxicity against HEK293 cells assessed as inhibition of cell proliferation at 30 umol/L after 72 hrs by MTT assay relative to control; assay type: cell-based; details: human
# [9] = Cytotoxicity against mouse C2C12 cells assessed as inhibition of cell proliferation at 3 x 10^-1 umol/L after 72 hrs by MTT assay relative to control; assay type: cell-based
# Staphylococcus aureus [10] = test: Antibacterial activity against methicillin-resistant Staphylococcus aureus N315 after 24 hrs by microbroth dilution method; assay type: functional; details: N315, 24 h
# Pichia norvegensis = test: Antifungal activity against Candida mycoderma ATCC 9888 after 24 hrs by microbroth dilution method; assay type: functional; details: ATCC 9888, 24 h
# Bacillus spizizenii = test: Antibacterial activity against Bacillus subtilis ATCC 6633 after 24 hrs by microbroth dilution method; assay type: functional; details: ATCC 6633, 24 h
# [11] = Cytotoxicity against MEF assessed as inhibition of cell proliferation at 30 umol/L after 72 hrs by MTT assay relative to control; assay type: cell-based; details: mouse, MEF cells
# Bacillus = test: Antibacterial activity against Bacillus proteus ATCC 13315 after 24 hrs by microbroth dilution method; assay type: functional; details: ATCC 13315, 24 h
# [12] = Cytotoxicity against mouse C2C12 cells assessed as inhibition of cell proliferation at 3 x 10^2 umol/L after 72 hrs by MTT assay relative to control; assay type: cell-based
# [13] = Cytotoxicity against HEK293 cells assessed as inhibition of cell proliferation at 3 x 10^-2 umol/L after 72 hrs by MTT assay relative to control; assay type: cell-based; details: human
# [14] = Cytotoxicity against mouse C2C12 cells assessed as inhibition of cell proliferation at 3 x 10^-2 umol/L after 72 hrs by MTT assay relative to control; assay type: cell-based
# [15] = Cytotoxicity against MEF assessed as inhibition of cell proliferation at 3 x 10^-2 umol/L after 72 hrs by MTT assay relative to control; assay type: cell-based; details: mouse, MEF cells
# MEF = test: Cytotoxicity against MEF assessed as inhibition of cell proliferation after 72 hrs by MTT assay; assay type: cell-based; details: Mus musculus
# [16] = Cytotoxicity against HEK293 cells assessed as inhibition of cell proliferation at 10^-2 umol/L after 72 hrs by MTT assay relative to control; assay type: cell-based; details: human
# [17] = Cytotoxicity against MEF assessed as inhibition of cell proliferation at 10^-2 umol/L after 72 hrs by MTT assay relative to control; assay type: cell-based; details: mouse, MEF cells
# Pseudomonas aeruginosa [18] = test: Binding affinity to Pseudomonas aeruginosa DNA assessed as 1:1 compound-DNA complex formation at 6 x 10^-6 mol/L by fluorescence spectroscopic analysis in presence of Cu2+
# Staphylococcus aureus [19] = test: Antibacterial activity against Staphylococcus aureus ATCC 25923 after 24 hrs by microbroth dilution method; assay type: functional; details: ATCC 25923, 24 h
# C2C12 = test: Cytotoxicity against mouse C2C12 cells assessed as inhibition of cell proliferation after 72 hrs by MTT assay; assay type: cell-based; details: C2C12, 72 h
# [20] = Cytotoxicity against mouse C2C12 cells assessed as inhibition of cell proliferation at 30 umol/L after 72 hrs by MTT assay relative to control; assay type: cell-based
# Candida albicans = test: Antifungal activity against Candida albicans ATCC 10231 after 24 hrs by microbroth dilution method; assay type: functional; details: ATCC 10231, 24 h
# Pseudomonas aeruginosa [21] = test: Binding affinity to Pseudomonas aeruginosa DNA up to 1.4 x 10^-5 mol/L by UV-vis absorption spectra analysis
# HEK293 = test: Cytotoxicity against HEK293 cells assessed as inhibition of cell proliferation after 72 hrs by MTT assay; assay type: cell-based; details: Homo sapiens, HEK293, 72 h
# [22] = Cytotoxicity against mouse C2C12 cells assessed as inhibition of cell proliferation at 10 umol/L after 72 hrs by MTT assay relative to control; assay type: cell-based
# [23] = Cytotoxicity against MEF assessed as inhibition of cell proliferation at 3 umol/L after 72 hrs by MTT assay relative to control; assay type: cell-based; details: mouse, MEF cells
# [24] = Cytotoxicity against mouse C2C12 cells assessed as inhibition of cell proliferation at 3 umol/L after 72 hrs by MTT assay relative to control; assay type: cell-based
# [25] = Cytotoxicity against HEK293 cells assessed as inhibition of cell proliferation at 3 x 10^-1 umol/L after 72 hrs by MTT assay relative to control; assay type: cell-based; details: human
# [26] = Cytotoxicity against MEF assessed as inhibition of cell proliferation at 10^-1 umol/L after 72 hrs by MTT assay relative to control; assay type: cell-based; details: mouse, MEF cells
# [27] = Cytotoxicity against HEK293 cells assessed as inhibition of cell proliferation at 10 umol/L after 72 hrs by MTT assay relative to control; assay type: cell-based; details: human
# Aspergillus flavus = test: Antifungal activity against Aspergillus flavus ATCC 204304 after 24 hrs by microbroth dilution method; assay type: functional; details: ATCC 204304, 24 h
# [28] = Cytotoxicity against HEK293 cells assessed as inhibition of cell proliferation at 10^2 umol/L after 72 hrs by MTT assay relative to control; assay type: cell-based; details: human
# [29] = Cytotoxicity against MEF assessed as inhibition of cell proliferation at 10 umol/L after 72 hrs by MTT assay relative to control; assay type: cell-based; details: mouse, MEF cells
# [30] = Cytotoxicity against HEK293 cells assessed as inhibition of cell proliferation at 3 umol/L after 72 hrs by MTT assay relative to control; assay type: cell-based; details: human
# Pseudomonas aeruginosa [31] = test: Binding affinity to Cu2+ assessed as 2:1 compound-metal complex formation at 6 x 10^-6 mol/L by fluorescence spectroscopic analysis
# [32] = Cytotoxicity against MEF assessed as inhibition of cell proliferation at 1 umol/L after 72 hrs by MTT assay relative to control; assay type: cell-based; details: mouse, MEF cells
# Escherichia coli = test: Antibacterial activity against Escherichia coli JM109 after 24 hrs by microbroth dilution method; assay type: functional; details: JM109, 24 h
# [33] = Ionization constant, pKa of the compound by UV spectroscopic analysis; assay type: physicochemical
# [34] = Cytotoxicity against MEF assessed as inhibition of cell proliferation at 3 x 10^2 umol/L after 72 hrs by MTT assay relative to control; assay type: cell-based; details: mouse, MEF cells
# [35] = Cytotoxicity against HEK293 cells assessed as inhibition of cell proliferation at 10^-1 umol/L after 72 hrs by MTT assay relative to control; assay type: cell-based; details: human
# [36] = Cytotoxicity against HEK293 cells assessed as inhibition of cell proliferation at 1 umol/L after 72 hrs by MTT assay relative to control; assay type: cell-based; details: human
# Saccharomyces cerevisiae = test: Antifungal activity against Saccharomyces cerevisiae ATCC 9763 after 24 hrs by microbroth dilution method; assay type: functional; details: ATCC 9763, 24 h
# Salmonella enterica = test: Antibacterial activity against Salmonella enterica ATCC 14028 after 24 hrs by microbroth dilution method; assay type: functional; details: ATCC 14028, 24 h
# [37] = Cytotoxicity against mouse C2C12 cells assessed as inhibition of cell proliferation at 10^-1 umol/L after 72 hrs by MTT assay relative to control; assay type: cell-based
# [38] = Cytotoxicity against mouse C2C12 cells assessed as inhibition of cell proliferation at 1 umol/L after 72 hrs by MTT assay relative to control; assay type: cell-based
# [39] = Cytotoxicity against mouse C2C12 cells assessed as inhibition of cell proliferation at 10^2 umol/L after 72 hrs by MTT assay relative to control; assay type: cell-based
smiles,measurement,setting,value
Cc1ncc([N+](=O)[O-])n1CC(O)CNC1CCN(c2c(F)cc3c(=O)c(C(=O)O)cn(C4CC4)c3c2Cl)C1 (configuration not stated),MIC,Micrococcus luteus,0.25 µg/mL
same,Activity,Pseudomonas aeruginosa [1],inactive
same,"inhibition at 72 h, 100 umol/L",[2],51.7%
same,MIC,Pseudomonas aeruginosa [3],0.25 µg/mL
same,MIC,Cyberlindnera jadinii,2 µg/mL
same,"inhibition at 72 h, 0.01 umol/L",[4],0%
same,KSV,Pseudomonas aeruginosa [5],7.02 L/mol
same,"inhibition at 72 h, 300 umol/L",[6],57.9%
same,"inhibition at 72 h, 0.3 umol/L",[7],0%
same,"inhibition at 72 h, 30 µM",[8],25.7%
same,"inhibition at 72 h, 0.3 umol/L",[9],0.3%
same,MIC,Staphylococcus aureus [10],0.25 µg/mL
same,MIC,Pichia norvegensis,8 µg/mL
same,MIC,Bacillus spizizenii,0.25 µg/mL
same,"inhibition at 72 h, 30 µM",[11],39.9%
same,MIC,Bacillus,0.25 µg/mL
same,"inhibition at 72 h, 300 umol/L",[12],65.5%
same,"inhibition at 72 h, 0.03 umol/L",[13],1.5%
same,"inhibition at 72 h, 0.03 umol/L",[14],0%
same,"inhibition at 72 h, 0.03 umol/L",[15],0%
same,IC50,MEF,60 µg/mL
same,"inhibition at 72 h, 0.01 umol/L",[16],0.1%
same,"inhibition at 72 h, 0.01 umol/L",[17],0%
same,Activity,Pseudomonas aeruginosa [18],Active
same,MIC,Staphylococcus aureus [19],0.5 µg/mL
same,IC50,C2C12,57 µg/mL
same,"inhibition at 72 h, 30 µM",[20],22.4%
same,MIC,Candida albicans,16 µg/mL
same,Activity,Pseudomonas aeruginosa [21],Active
same,IC50,HEK293,126 µg/mL
same,"inhibition at 72 h, 10 µM",[22],10.3%
same,"inhibition at 72 h, 3 µM",[23],8.4%
same,"inhibition at 72 h, 3 µM",[24],4%
same,"inhibition at 72 h, 0.3 umol/L",[25],4.1%
same,"inhibition at 72 h, 0.1 umol/L",[26],0%
same,"inhibition at 72 h, 10 µM",[27],21.8%
same,MIC,Aspergillus flavus,4 µg/mL
same,"inhibition at 72 h, 100 umol/L",[28],35.8%
same,"inhibition at 72 h, 10 µM",[29],22.7%
same,"inhibition at 72 h, 3 µM",[30],13%
same,Activity,Pseudomonas aeruginosa [31],Active
same,"inhibition at 72 h, 1 µM",[32],0%
same,MIC,Escherichia coli,2 µg/mL
same,pKa,[33],6.48
same,"inhibition at 72 h, 300 umol/L",[34],58.1%
same,"inhibition at 72 h, 0.1 umol/L",[35],0.9%
same,"inhibition at 72 h, 1 µM",[36],5.3%
same,MIC,Saccharomyces cerevisiae,8 µg/mL
same,MIC,Salmonella enterica,0.5 µg/mL
same,"inhibition at 72 h, 0.1 umol/L",[37],0%
same,"inhibition at 72 h, 1 µM",[38],0.7%
same,"inhibition at 72 h, 100 umol/L",[39],58.2%
